“And” between values parts separate entries of the source, which are not always exact repeats. Equal values may be shown once. “Also recorded” adds a separate entry of the source. Read-outs that look alike come from different tables or passages of the source. Values belong to the molecule of their own block, whether it stands above or below them.
Columns and labels:
GLS1 = settings: cited from earlier work; for potency of GLS1 inhibition in vitro: varying with cell types; for fold increased inhibitory efficiency compared with DON and BPTES: GLS inhibitors
human CD4+ T cells = assay: CFSE-based anti-CD3/CD28-induced CD4+ T-cell proliferation assay; settings: for percentage of proliferating cells (CFSE dilution), mean: compound 25 µM, anti-CD3/CD28 beads 1:1, 96 h, stimulated control 71.70% ± 1.60
Description: Human CD4+ T cells were isolated from buffy coats of healthy donors (obtained from Blodbanken, Oslo, Norway) using the Dynabeads CD4 Positive Isolation Kit (Life Technologies AS, Norway) according to the manufacturer's protocol. […] After 4 days of incubation, beads were removed; cells were washed with 1x PBS, and T‐cell proliferation was assessed by measuring the CFSE dilution using flow cytometry.

[1] = tested on: anti-CD3/CD28-induced CD4+ T cells; settings: cited from earlier work
[2] = target: T1, recombinant human glutaminase Δ129GAC (Homo sapiens, UniProt O94925); assay: Coupled GLS/GDH enzyme assay (HTS and dose response), NADH readout; assay type: biochemical; settings: for IC50: 10-point dose response, twofold serial dilution 0.39–200 µM, nonlinear curve fitting, read-out: IC50 for Δ129GAC inhibition; for inhibition at 10 µM: HTS, compound 10 µM, read-out: inhibition of Δ129GAC, positive hits of HTS counter screen; for inhibition of His-Δ129GAC reached in the dose response: dose response 0.39–200 µM
T1 construct: to generate peptides from amino acids 17‐598 and 73‐598 and 130‐598, respectively; made in house; host or cells: Escherichia coli BL21DE3 Rosetta (pRARE)
T1 sequence (O94925 130-598 isoform O94925-3): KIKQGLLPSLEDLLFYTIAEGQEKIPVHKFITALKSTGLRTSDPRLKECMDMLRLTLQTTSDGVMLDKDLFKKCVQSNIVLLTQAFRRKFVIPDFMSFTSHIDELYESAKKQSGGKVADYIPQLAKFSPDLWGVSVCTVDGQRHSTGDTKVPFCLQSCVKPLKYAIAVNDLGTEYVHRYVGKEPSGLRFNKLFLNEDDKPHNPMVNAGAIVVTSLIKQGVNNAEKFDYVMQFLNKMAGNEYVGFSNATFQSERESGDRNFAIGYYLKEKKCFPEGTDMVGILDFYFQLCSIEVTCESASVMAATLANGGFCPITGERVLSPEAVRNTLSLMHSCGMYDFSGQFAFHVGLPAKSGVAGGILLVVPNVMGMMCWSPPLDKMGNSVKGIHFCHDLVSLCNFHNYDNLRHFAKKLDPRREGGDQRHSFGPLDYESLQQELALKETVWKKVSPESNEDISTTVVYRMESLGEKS
Description: The assay used to determine GLS activity for HTS and enzyme kinetics measurements was adapted from Cassago et al.. In brief, this assay determines the activity of GLS by measuring the amount of NADH produced by glutamate dehydrogenase (GDH) when converting glutamate to α‐ketoglutarate. […] For HTS, the enzyme assay was run using the following conditions: 6 nM Δ129GAC, 50 mM Tris‐acetate, pH 8.6, 3 units of bovine serum GDH (Sigma‐Aldrich), 2 mM NAD^+ (Roche, Basel, Switzerland), 4 mM glutamine, 50 mM K2PO4 (MERCK, Kenilworth, NJ, USA) and 0.005% Tween‐20 (Sigma‐Aldrich). […] 10 nL of each compound was applied to the wells using an ECHO 550 liquid handler (Labcyte, Sunnyvale, CA, USA) followed by dispensing and mixing of 5 µL enzyme assay mix (Hamilton Microlab Star, Reno, NV, USA). This mix was incubated at room temperature for 1 h. Columns 23 and 24 on the plate contained wells for positive and negative controls to determine Z‐factor values. Z‐factor value was calculated based on formula 1: Formula1:[…] σp is the SD of the positive control, σn is the SD of the negative control, µp is the mean of the positive control and µn is the mean of the negative control. Following 1‐h incubation, 5 µL of glutamine (final concentration 4 mM) was added.
To become enzymatically active, the first 16 and 72 amino acids at the N‐terminal must be sequentially deleted in the mitochondria from endogenous GLSGAC [6]. We cloned and expressed three variants of GAC, Δ16GAC, Δ72GAC and Δ129GAC (Fig. 1A,B). […] Next, Δ129GAC PCR product was cloned into pET‐24(b) which contained DNA encoding sequence for a His‐tag. […] Using His‐Δ129GAC, a HTS GAC enzyme activity assay was modified according to Cassago et al.. Briefly, the assay is a two‐step enzymatic assay where glutamine converted to glutamate by His‐Δ129GAC and further to α‐ketoglutarate and NADH by GDH (Fig. 1D). The glutamine consumption activity of His‐Δ129GAC was determined by assuming a stoichiometric ratio of one glutamine consumed to every molecule of NADH produced.

[3] = target: T1, recombinant human glutaminase Δ129GAC; assay: Steady-state kinetic analysis of Δ129GAC in the presence of C19; assay type: biochemical
Description: […] of NADH in the HTS was measured at 340 nm after 5 min, and quantification was done by using the extinction coefficient for NADH of 6220 M^−1·cm^−1 and 7.7 mm of path length. The total reaction volume was 80 µL, and the measurements were performed on a FluoStar Optima (BMB Labtech, Ortenberg, Germany) microplate reader. The experiments were done in 5 replicates at 12 different substrate concentrations ranging from 0.39 to 50 mM. The kinetics were determined at compound concentrations of 16, 25 and 30 µM.

His-Δ129GAC = target: T2, His-Δ129GAC (Homo sapiens, UniProt O94925); assay: Microscale thermophoresis (MST), labelled and nonlabelled; assay type: binding; settings: 25 °C
T2 construct: to generate peptides from amino acids 17‐598 and 73‐598 and 130‐598, respectively; made in house; host or cells: Escherichia coli BL21DE3 Rosetta (pRARE)
T2 sequence (O94925 130-598 isoform O94925-3): T1 sequence (O94925 130-598 isoform O94925-3)
Description: For the nonlabelled microscale thermophoresis (MST) assay, a 16‐point titration series of compound was done in a protein concentration of 100 nM Δ129GAC. […] Samples were loaded into Zero Background MST Premium Coated Capillaries, and measurements were done with a Monolith NT Label‐Free instrument (NanoTemper) at 25 °C using 20% MST power and 20% excitation power. […] For labelled analyses, MST Premium Coated Capillaries were used. The experiments were performed in duplicates and data presented as mean values ± standard deviation (SD). Data were normalized and nonlinear curve fitted using […] PRISM version 6 (La Jolla, CA, USA).

[4] = tested on: cytokine production of anti-CD3/CD28-stimulated CD4+ T cells; assay: Luminex screening assay of cytokines in T-cell culture supernatants; assay type: cell-based, human; settings: compound 25 µM, day 3, normalized to stimulated control
Description: Supernatants from T‐cell cultures were harvested after 3 days of stimulation and stored at −20 °C. Samples were diluted twofold, and the human magnetic luminex screening assay (R&D Systems, Minneapolis, MN, USA) for TNF‐α, IL‐6, IL‐10, INF‐g, IL‐4, IL‐17α, IL‐2 was performed according to manufacturer’s instructions. Data were analysed with Milliplex Analyst (Merck Millipore) and standard curves set according to manufacturer's recommendations.

MDA-231 TNBC cells = assay: Thymidine incorporation proliferation assay, MDA-231; assay type: cell-based; settings: Homo sapiens, MDA-MB-231, 72 h, read-out: IC50 proliferation MDA-231
[5] = target: T3, glutamate dehydrogenase (GDH) (Bos taurus, UniProt P00366); assay: GDH counter assay (secondary enzyme of the coupled assay); assay type: biochemical, bovine
T3 construct: purchased Sigma‐Aldrich

MDA-468 TNBC cells = assay: Thymidine incorporation proliferation assay, MDA-468; assay type: cell-based; settings: 72 h, read-out: IC50 proliferation MDA-468, thymidine incorporation after 72 h
cells = tested on: cells; parameters: method as in PMID 909432, PMID 4587126; settings: cited from earlier work
[6] = parameters: method as in PMID 30148361; settings: cited from earlier work
[7] = parameters: method as in PMID 30148361; settings: cited from earlier work; remark: listed apart in the source

T3 sequence (P00366 58-558): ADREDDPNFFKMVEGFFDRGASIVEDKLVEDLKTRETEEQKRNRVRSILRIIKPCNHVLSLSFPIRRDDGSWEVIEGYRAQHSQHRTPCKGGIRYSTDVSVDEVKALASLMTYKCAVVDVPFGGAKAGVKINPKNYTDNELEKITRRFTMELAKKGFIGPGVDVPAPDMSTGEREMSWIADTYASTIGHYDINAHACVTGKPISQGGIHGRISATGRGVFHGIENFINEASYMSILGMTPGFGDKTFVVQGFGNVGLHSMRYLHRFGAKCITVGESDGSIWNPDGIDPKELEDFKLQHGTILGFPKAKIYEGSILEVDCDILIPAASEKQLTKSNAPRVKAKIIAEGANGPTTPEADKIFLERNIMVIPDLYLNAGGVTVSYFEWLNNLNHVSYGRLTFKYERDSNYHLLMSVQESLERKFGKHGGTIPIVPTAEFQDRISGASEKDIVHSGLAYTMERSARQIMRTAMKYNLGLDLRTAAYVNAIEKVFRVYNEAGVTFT

Structure (SMILES): O=C(Cc1ccccc1)Nc1nnc(CCSCCc2nnc(NC(=O)Cc3ccccc3)s2)s1 [BPTES, bis‐2‐(5‐phenylacetamido‐1,3,4‐thiadiazol‐2yl)ethyl sulfide]
- percentage of proliferating cells (CFSE dilution), mean (human CD4+ T cells): 15.03%

- IC50 [2]: 2.3 µM
- inhibition at 10 µM [2]: ≥ 50%
Structure (SMILES): Sc1nc(-c2ccccc2)cn1N=Cc1ccncc1 [C2]
- inhibition of His-Δ129GAC reached in the dose response [2]: did not inhibit Δ129GAC activity by 100%; also recorded: incapable of completely inhibiting
- inhibition of CD3/CD28-induced CD4+ T-cell proliferation (human CD4+ T cells): not

- IC50 [2]: 5.7 µM
- inhibition at 10 µM [2]: ≥ 50%
- inhibition of His-Δ129GAC reached in the dose response [2]: incapable of completely inhibiting
- inhibition of His-Δ129GAC reached in the dose response ([2]; listed as 15): did not inhibit Δ129GAC activity by 100%
Structure (SMILES): Cc1ccc(-c2nnc3n2CCCCC3)cc1NC(=O)Cc1sc(S)nc1C [C15]
- inhibition of CD3/CD28-induced CD4+ T-cell proliferation (human CD4+ T cells): not

- IC50 [2]: 6.8 µM
- inhibition at 10 µM [2]: ≥ 50%
- effect on Km of His-Δ129GAC ([3]; C19 0–30 µM): not significantly affected
- K cat ([3]; [I] 16 µM C19): 23.03 ± 0.6245 s⁻¹
- V max ([3]; [I] 16 µM C19, 6 nM Δ129GAC): 44.22 ± 1.1990 pmol/s
- K cat ([3]; [I] 25 µM C19): 16.46 ± 0.6640 s⁻¹
- V max ([3]; [I] 25 µM C19, 6 nM Δ129GAC): 31.59 ± 1.2750 pmol/s
- K cat ([3]; [I] 30 µM C19): 12.31 ± 0.2425 s⁻¹
- Kd (His-Δ129GAC; 100 nM nonlabelled Δ129GAC, C19 0–1000 µM, read-out: Kd, nonlabelled MST): 20 ± 4.8 µM
- Kd (His-Δ129GAC; NT-647-labelled Δ129GAC 25 nM, read-out: Kd, labelled MST): 14.7 µM
Structure (SMILES): O=C(NCCNc1nc2ccccc2s1)c1cccnc1S [C19]
- mode of inhibition with respect to the substrate ([3]; C19 0, 16, 25, 30 µM): noncompetitive inhibitor; also recorded: noncompetitive inhibition
- V max ([3]; [I] 30 µM C19, 6 nM Δ129GAC): 23.63 ± 0.47 pmol/s and 23.63 ± 0.4655 pmol/s
- IC50 (human CD4+ T cells; Homo sapiens, CD4+ T cell): 11 µM
- percentage of proliferating cells (CFSE dilution), mean (human CD4+ T cells): 9.16%
- levels of TNF-α, IL-10, IL-2, IL-6, INF-γ, IL-17A and IL-4 in supernatants [4]: significant decrease; also recorded: significantly better than BPTES

- effect on GDH activity ([5]; 10 µM CB839 for 2 h): did not influence GDH activity
Structure (SMILES): O=C(Cc1cccc(OC(F)(F)F)c1)Nc1ccc(CCCCc2nnc(NC(=O)Cc3ccccn3)s2)nn1 [CB839, Telaglenastat]
- IC50 (MDA-231 TNBC cells): 0.00019 µM
- effect on GDH activity ([5]; 30 nM CB839, measured after 20 min, glutamate as substrate): no effect on GDH activity; also recorded: no inhibition effect
- IC50 (MDA-468 TNBC cells): 0.0112 µM

Structure (SMILES): [N-]=[N+]=CC(=O)CC[C@H](N)C(=O)O [DON, 6‐diazo‐5‐oxonorleucine]
- off-target toxicity to cells (cells): toxic to cells

Structure (SMILES): CN1CCc2cccc3c2[C@H]1Cc1ccc(O)c(O)c1-3 [apomorphine]
- fold increased inhibitory efficiency compared with DON and BPTES (GLS1): over 100 fold

Structure (SMILES): COc1ccc2c(c[n+](C)c3c4cc5c(cc4ccc23)OCO5)c1OC [chelerythrine]
- fold increased inhibitory efficiency compared with DON and BPTES (GLS1): over 100 fold

Structure (SMILES): CN(C)c1ccc(C2Nc3ccc4ccccc4c3C3=C2C(=O)CC(C)(C)C3)cc1Br (stereo not shown) [compound 968, 5‐(3‐Bromo‐4‐(dimethylamino)phenyl)‐2,2‐dimethyl‐2,3,5,6‐tetrahydrobenzo[a]phenanthridin‐4(1H)‐one]
- aqueous solubility [6]: poor
- potency of GLS1 inhibition in vitro (GLS1): 2.5 µM
- metabolic stability [7]: poor

Structure (SMILES): O=c1c2ccccc2[se]n1-c1ccccc1 [ebselen]
- fold increased inhibitory efficiency compared with DON and BPTES (GLS1): over 100 fold

Reference: article PMC8727943, “Identification and characterization of a novel glutaminase inhibitor” (FEBS Open Bio, 2021)
